Assay results: patent publication US20110152501A1, “Activatable Imaging Probes” (THE GENERAL HOSPITAL CORPORATION, priority 2001, published 2011)
Values belong to the compound of their own block, whether it stands above or below them. Non-standard residues stand in square brackets, D forms with d. Primed or numbered codes have the meaning given here. No end group written: not given here. *: point of attachment. FITC = O=C1OC2(c3ccc(O)cc3Oc3cc(O)ccc32)c2ccc(NC(=S)*)cc21; Pip′ = not defined here

Tests used:
Format in all cases: biochemical
thrombin = biological target: T1, thrombin (Homo sapiens, UniProt P00734); experiment: Enzymatic assay of peptide cleavage by thrombin (HPLC)
T1 construct: tested with purified thrombin in PBS buffer
Excerpt: In contrast, there was no cleavage when the serine at P1′ position was replaced by a proline residue.

MMP-2 [1] = biological target: T2, MMP-2 (Homo sapiens, UniProt P08253); experiment: HPLC analysis of peptide substrates after incubation with MMP-2
T2 construct: purchased Boehringer-Mannheim, Ind
T2 sequence (P08253 110-660): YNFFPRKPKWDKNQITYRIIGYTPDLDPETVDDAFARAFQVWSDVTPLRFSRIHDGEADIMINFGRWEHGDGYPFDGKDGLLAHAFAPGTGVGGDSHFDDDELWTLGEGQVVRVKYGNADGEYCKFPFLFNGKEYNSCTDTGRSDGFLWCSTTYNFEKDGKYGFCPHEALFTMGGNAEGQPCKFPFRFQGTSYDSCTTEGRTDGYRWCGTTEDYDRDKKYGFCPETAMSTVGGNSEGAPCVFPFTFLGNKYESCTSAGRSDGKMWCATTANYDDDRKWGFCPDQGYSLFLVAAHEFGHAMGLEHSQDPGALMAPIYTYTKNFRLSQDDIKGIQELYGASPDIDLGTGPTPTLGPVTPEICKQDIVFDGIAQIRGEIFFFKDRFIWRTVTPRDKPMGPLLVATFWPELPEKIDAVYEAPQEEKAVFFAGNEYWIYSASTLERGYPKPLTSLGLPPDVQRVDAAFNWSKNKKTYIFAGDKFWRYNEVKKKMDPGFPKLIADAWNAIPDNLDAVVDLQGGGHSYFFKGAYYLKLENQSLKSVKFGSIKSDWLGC
Procedure: The synthesized probes contain a preferential MMP-2 peptide substrate. Two different peptide substrates were used in this study, an MMP-2 cleavable peptide ([…](FITC)C-NH2 (SEQ ID NO:10) (substrate sites are italicized)) and a scrambled control peptide. […] Although the latter control probe has a GVR leader sequence, it is too short to be recognized by MMP-2.
Characterization of probe. A number of experiments were conducted to characterize the peptide substrate and imaging probes. Initially we performed HPLC analysis of peptide and control substrates prior to and after incubation with 1 U of MMP-2. One unit is the activity that hydrolyzes 1 μg of type IV collagen within 1 hour using a commercially available assay (gelatinase 72 kD, Boehringer Mannheim, Indianapolis, Ind.). Reverse phase HPLC (Brownlee, Spheri-5, ODS, 30×4.6 mm), using 0.1% TFA and acetonitrile as elution buffers was performed (Rainin Instruments, Woburn, Mass.). […] The control probe contained the scrambled peptide. To determine the range of enzyme activation, a constant amount of imaging probe (26.6 pmol) was incubated with variable amounts of activated MMP-2 and fluorescence was determined after 24 hours. […]

purified thrombin = biological target: T3, purified thrombin (Homo sapiens, UniProt P00734); experiment: Probe activation with purified thrombin in PBS buffer, NIRF signal over time; conditions: thrombin added to solutions containing thrombin probe and hirudin, compared to hirudin-free solutions
T3 construct: tested with purified thrombin in PBS buffer
Procedure: The prepared probes were first tested with purified thrombin in PBS buffer as the NIRF signal was recorded over time. […] Following addition of thrombin, NIRF signal increased from 150 AU to 4100 AU within 20 minutes (27 fold increase). […] There was a clear dose response when the probe was incubated with different amounts of thrombin.

MMP-2 [2] = biological target: T2, MMP-2; experiment: Inhibition of MMP-2 mediated probe activation by inhibitors; conditions: 1 mM
Procedure: Using 5 U of MMP-2 and 19 pmol of imaging probe, we performed a dose response study of mediated MMP inhibition up to 0.1 mM of inhibitor.
To determine the range of enzyme activation, a constant amount of imaging probe (26.6 pmol) was incubated with variable amounts of activated MMP-2 and fluorescence was determined after 24 hours. Inhibition experiments were performed by incubating 1 U of purified, activated MMP-2 with 19 pmol NIRF probe (220 pmol Cy 5.5) in the presence of different inhibitors, 1.10 phenanthroline (1 mM, Aldrich, Milwaukee, Wis.), a Zinc chelator, or a direct MMP-2 inhibitor.

cleavage by thrombin (thrombin; HPLC): cleaved into two major products
Compound: Gly-D-Phe-Pip-Arg-Ser-Gly-Gly-Gly-Gly-Lys(FITC)-Cys-NH2 (G[dF][Pip′]RSGGGGK(FITC)C-NH2) [C-terminal extended peptide]

stability against thrombin (thrombin; two hours following incubation with thrombin): remained intact
Compound: Gly-D-Phe-Pip-Arg-Pro-Gly-Gly-Gly-Gly-Lys(FITC)-Cys-NH2

cleavage by MMP-2 (MMP-2 [1]): cleavage of the former
Compound: Gly-Pro-Leu-Gly-Val-Arg-Gly-Lys(FITC)-Cys-NH2 (GPLGVRGK(FITC)C-NH2; N-terminus assumed; SMILES CC(C)C[C@H](NC(=O)[C@@H]1CCCN1C(=O)CN)C(=O)NCC(=O)N[C@H](C(=O)N[C@@H](CCCNC(=N)N)C(=O)NCC(=O)N[C@@H](CCCCNC(=S)Nc1ccc2c(c1)C(=O)OC21c2ccc(O)cc2Oc2cc(O)ccc21)C(=O)N[C@@H](CS)C(N)=O)C(C)C)

effect on thrombin activation of the thrombin probe (purified thrombin): significantly less NIRF signal
Compound: hirudin

blocking of fluorescence activation (MMP-2 [2]): completely blocked
Compound: c1cnc2c(c1)ccc1cccnc12 [1,10 phenanthroline]
